From BindingDB's records for patent US11708326 (Chemocentryx, 2023)

Molecular target: Programmed cell death 1 ligand 1 (Homo sapiens, UniProt Q9NZQ7)
Assay: Enzyme-Linked Immunosorbent Assay ELISA
Procedure: 96 Well plates were coated with 1 μg/mL of human PD-L1 (obtained from R&D) in PBS overnight at 4° C. The wells were then blocked with 2% BSA in PBS (W/V) with 0.05% TWEEN-20 for 1 hour at 37° C. The plates were washed 3 times with PBS/0.05% TWEEN-20 and the compounds were serial diluted (1:5) in dilution medium and added to the ELISA plates. Human PD-1 and biotin 0.3 μg/mL (ACRO Biosystems) were added and incubated for 1 hour at 37° C. then washed 3 times with PBS/0.05% TWEEN-20. A second block was performed with 2% BSA in PBS (W/V)/0.05% TWEEN-20 for 10 min at 37° C. and was washed 3 times with PBS/0.05% TWEEN-20. Streptavidin-HRP was added for 1 hour at 37° C. then washed 3 times with PBS/0.05% TWEEN-20. TMB substrate was added and reacted for 20 min at 37° C. A stop solution (2 N aqueous H2SO4) was added. The absorbance was read at 450 nm using a micro-plate spectrophotometer.

Chain of Programmed cell death 1 ligand 1 (Q9NZQ7 whole entry): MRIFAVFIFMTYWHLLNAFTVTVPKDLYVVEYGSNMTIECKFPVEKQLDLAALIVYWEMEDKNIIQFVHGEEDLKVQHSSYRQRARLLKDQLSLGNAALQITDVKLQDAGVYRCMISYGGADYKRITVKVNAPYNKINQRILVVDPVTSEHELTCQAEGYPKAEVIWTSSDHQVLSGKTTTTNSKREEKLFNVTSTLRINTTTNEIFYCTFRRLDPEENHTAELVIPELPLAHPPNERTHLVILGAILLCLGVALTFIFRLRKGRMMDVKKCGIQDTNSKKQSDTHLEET

SMILES | IC50
N#Cc1cncc(COc2cc(O[C@H]3CCc4c(-c5cccc(OCCCN6CC(F)C6)c5Cl)cccc43)c(Cl)cc2CN[C@@H]2CCCC[C@@H]2O)c1 [US11708326, Compound TABLE 1.92] | < 5 nM
Cc1c(OCCCN2[C@H](C)CCC[C@@H]2C)cccc1-c1cccc2c1CC[C@@H]2Oc1cc(OCc2cc(C#N)cc(C#N)c2)c(CN[C@H]2CCC(=O)NC2)cc1Cl [US11708326, Compound TABLE 1.298] | in the range around 252 nM
Cc1c(OCCCN2CCC2(C)C)cccc1-c1cccc2c1CC[C@@H]2Oc1cc(OCc2cc(C#N)cc(C#N)c2)c(CN[C@H]2CCC(=O)NC2)cc1Cl [US11708326, Compound TABLE 1.323] | < 5 nM
Cc1c(OCCCN2CCCC2C(C)C)cccc1-c1cccc2c1CC[C@@H]2Oc1cc(OCc2cc(C#N)cc(C#N)c2)c(CN[C@H]2CCC(=O)NC2)cc1Cl (stereo not given in full) [US11708326, Compound TABLE 1.305] | in the range around 252 nM
N#Cc1cncc(COc2cc(O[C@H]3CCc4c(-c5cccc(OCCCN6CC7(CC(O)C7)C6)c5Cl)cccc43)c(Cl)cc2CNC[C@H]2CCC(=O)N2)c1 [US11708326, Compound TABLE 1.165] | < 5 nM
Cc1c(OCCCN2[C@H](C)CC[C@@H]2C)cccc1-c1cccc2c1CC[C@@H]2Oc1cc(OCc2cc(C#N)cc(C#N)c2)c(CN[C@H]2CCC(=O)NC2)cc1Cl [US11708326, Compound TABLE 1.333] | < 5 nM
Cc1c(OCCCN2CCCC[C@@H]2C)cccc1-c1cccc2c1CC[C@@H]2Oc1cc(OCc2cc(C#N)cc(C#N)c2)c(CN[C@H]2CCC(=O)NC2)cc1Cl [US11708326, Compound TABLE 1.315] | < 5 nM
CCOc1cc(O[C@H]2CCc3c(-c4cccc(OCCCN5CCC5(C)C)c4C)cccc32)c(Cl)cc1CN(C)CC(=O)O [US11708326, Compound TABLE 1.378] | in the range around 252 nM
CCOc1cc(O[C@H]2CCc3c(-c4cccc(OCCCN5CCC5(C)C)c4C)cccc32)c(Cl)cc1CNCCC(=O)OC(C)C [US11708326, Compound TABLE 1.393] | in the range around 252 nM
CC(CO)(NCc1cc(Cl)c(O[C@H]2CCc3c(-c4cccc(OCCCN5CCCCC5)c4Cl)cccc32)cc1OCc1cncc(C#N)c1)C(=O)O (stereo not given in full) [US11708326, Compound TABLE 1.130] | < 5 nM
Cc1c(OCCCN2CCC(C)CC2)cccc1-c1cccc2c1CC[C@@H]2Oc1cc(OCc2cc(C#N)cc(C#N)c2)c(CN[C@H]2CCC(=O)NC2)cc1Cl [US11708326, Compound TABLE 1.296] | in the range around 252 nM
N#Cc1cncc(COc2cc(O[C@H]3CCc4c(-c5cccc(OCCCN6CC(O)C6)c5Cl)cccc43)c(Cl)cc2CN2CCCC3(C2)NC(=O)NC3=O)c1 (stereo not given in full) [US11708326, Compound TABLE 1.137] | < 5 nM
Cc1c(OCCCN2[C@H](C)CC[C@H]2C)cccc1-c1cccc2c1CC[C@@H]2Oc1cc(OCc2cc(C#N)cc(C#N)c2)c(CN[C@H]2CCC(=O)NC2)cc1Cl [US11708326, Compound TABLE 1.334] | < 5 nM
CCOc1cc(NC2CCc3c(-c4cccc(OCCCN5CCC(F)CC5)c4C)cccc32)c(Cl)cc1CN[C@@H](CO)C(=O)O (stereo not given in full) [US11708326, Compound TABLE 1.117] | in the range around 252 nM
Cc1c(OCCCN2[C@@H](C)CC[C@@H]2C)cccc1-c1cccc2c1CC[C@@H]2Oc1cc(OCc2cc(C#N)cc(C#N)c2)c(CN[C@H]2CCC(=O)NC2)cc1Cl [US11708326, Compound TABLE 1.335] | < 5 nM
Cc1c(OCCCN2CC[C@H](O)[C@H](F)C2)cccc1-c1cccc2c1CC[C@@H]2Oc1cc(OCc2cncc(C#N)c2)c(CN[C@H](C(=O)O)[C@@H](C)O)cc1Cl [US11708326, Compound TABLE 1.34] | < 5 nM
Cc1c(OCCCN2C(C)CCC2C)cccc1-c1cccc2c1CC[C@@H]2Oc1cc(OCc2cc(C#N)cc(C#N)c2)c(CN[C@H]2CCC(=O)NC2)cc1Cl (stereo not given in full) [US11708326, Compound TABLE 1.304] | < 5 nM
Cc1c(OCCCN2CCC(F)(F)CC2)cccc1-c1cccc2c1CC[C@@H]2Oc1cc(OCc2cncc(C#N)c2)c(CN[C@H](C(=O)O)[C@@H](C)O)cc1Cl [US11708326, Compound TABLE 1.18] | in the range around 252 nM
N#Cc1cncc(COc2cc(O[C@H]3CCc4c(-c5cccc(OCCCN6CC7(CC(O)C7)C6)c5Cl)cccc43)c(Cl)cc2CNC[C@@H]2CCC(=O)N2)c1 [US11708326, Compound TABLE 1.164] | < 5 nM
Cc1c(OCCCN2CC[C@@H](O)[C@H](F)C2)cccc1-c1cccc2c1CC[C@@H]2Oc1cc(OCc2cncc(C#N)c2)c(CN[C@H](C(=O)O)[C@@H](C)O)cc1Cl [US11708326, Compound TABLE 1.31] | in the range around 252 nM
